Data published in the NIST ThermoML archive (doi:10.1016/j.jct.2011.10.009).

Experiment: xn = mol fraction of the nth substance listed
Conditions: 101 kPa, Liquid, Vibrating tube method

[2H]C(C)O (stereo not given) [ethanol-1-d] + [2H]O[2H]
mass density [kg/m3]
Conditions | 278.15 K | 288.15 K | 298.15 K | 308.15 K | 318.15 K
x2 = 0.001004 | 819.11 | 810.48 | 801.72 | 792.83 | 783.78
x2 = 0.00168 | 819.21 | 810.58 | 801.83 | 792.94 | 783.89
x2 = 0.00308 | 819.43 | 810.8 | 802.05 | 793.15 | 784.1
x2 = 0.005192 | 819.67 | 811.12 | 802.37 | 793.47 | 784.42
x2 = 0.008159 | 820.22 | 811.58 | 802.83 | 793.93 | 784.87
x2 = 0.01089 | 820.65 | 812.01 | 803.25 | 794.34 | 785.28
x2 = 0.01426 | 821.17 | 812.53 | 803.76 | 794.86 | 785.79
x2 = 0.0173 | 821.64 | 813 | 804.23 | 795.32 | 786.25
x2 = 0.02028 | 822.1 | 813.46 | 804.69 | 795.77 | 786.7
x2 = 0.02325 | 822.56 | 813.91 | 805.14 | 796.22 | 787.14
x2 = 0.02639 | 823.05 | 814.4 | 805.62 | 796.7 | 787.61
x2 = 0.03026 | 823.65 | 814.99 | 806.21 | 797.28 | 788.19
x2 = 0.03472 | 824.23 | 815.57 | 806.78 | 797.85 | 788.76
x2 = 0.03723 | 824.72 | 816.06 | 807.27 | 798.33 | 789.23

CCO [ethanol] + O
mass density [kg/m3]
Conditions | 278.15 K | 288.15 K | 298.15 K | 308.15 K | 318.15 K
x2 = 0.0009961 | 802.2 | 793.72 | 785.15 | 776.47 | 767.66
x2 = 0.002144 | 802.34 | 793.86 | 785.29 | 776.61 | 767.79
x2 = 0.004143 | 802.59 | 794.1 | 785.53 | 776.85 | 768.03
x2 = 0.00674 | 802.91 | 794.42 | 785.85 | 777.16 | 768.34
x2 = 0.009286 | 803.22 | 794.73 | 786.16 | 777.47 | 768.65
x2 = 0.01189 | 803.54 | 795.06 | 786.48 | 777.79 | 768.96
x2 = 0.01442 | 803.85 | 795.37 | 786.79 | 778.09 | 769.26
x2 = 0.01794 | 804.29 | 795.8 | 787.22 | 778.52 | 769.69
x2 = 0.02115 | 804.68 | 796.2 | 787.61 | 778.92 | 770.08
x2 = 0.02506 | 805.17 | 796.68 | 788.1 | 779.4 | 770.56
x2 = 0.0292 | 805.69 | 797.2 | 788.61 | 779.91 | 771.06
x2 = 0.03125 | 805.94 | 797.46 | 788.87 | 780.16 | 771.31
x2 = 0.0336 | 806.24 | 797.75 | 789.16 | 780.45 | 771.6
x2 = 0.03661 | 806.61 | 798.13 | 789.54 | 780.83 | 771.97
